Assay results as given in paper PMC7520961, “Safety evaluation of the interchangeable use of robenacoxib in commercially-available tablets and solution for injection in cats” (BMC Veterinary Research, 2020).

Key:
cats [1] = assay: Clinical chemistry (target animal safety study); type: in vivo, cat; settings: for Total Bilirubin (mean ± SD) / GGT (mean ± SD) / AST (mean ± SD) / Creatine Kinase (mean ± SD) / Creatinine (mean ± SD) / Albumin/Globulin Ratio (mean ± SD) / Globulin (mean ± SD) / Albumin (mean ± SD) / Potassium (mean ± SD) / Total Protein (mean ± SD) / Phosphorus (mean ± SD) / Calcium (mean ± SD) / Triglyceride (mean ± SD) / Urea Nitrogen (mean ± SD) / ALT (mean ± SD) / Alkaline Phosphatase (mean ± SD) / Glucose (mean ± SD) / Cholesterol (mean ± SD) / Chloride (mean ± SD) / Sodium (mean ± SD): post-treatment, average of days 13 and 37; for Total Bilirubin (mean ± SD): reference range 0 - 0.3; for GGT (mean ± SD): reference range 0 – 2; for GGT (mean ± SD) / Albumin/Globulin Ratio (mean ± SD): significant treatment x sex and treatment x time effects (p<0.1); for AST (mean ± SD): reference range 0 – 55; for AST (mean ± SD) / Triglyceride (mean ± SD): significant treatment x sex effect (p<0.1); for Creatine Kinase (mean ± SD): reference range 0 – 1213; for Creatinine (mean ± SD): reference range 0.5 - 1.3; for Albumin/Globulin Ratio (mean ± SD): reference range 0.9 - 1.5; for Globulin (mean ± SD): reference range 2.1 - 3.3; for Albumin (mean ± SD): reference range 2.9 - 3.7; for Potassium (mean ± SD): reference range 4.6 - 7.4, significant treatment x time effect (p<0.1); for Total Protein (mean ± SD): reference range 5.4 - 6.7; for Phosphorus (mean ± SD): reference range 6.2 - 9.7, significant (p<0.1); for Calcium (mean ± SD): reference range 9.6 - 11.5; for Triglyceride (mean ± SD): reference range 12 – 64; for Urea Nitrogen (mean ± SD): reference range 15 – 35; for ALT (mean ± SD): reference range 27 – 103; for Alkaline Phosphatase (mean ± SD): reference range 50 – 186; for Glucose (mean ± SD): reference range 55 - 159; for Cholesterol (mean ± SD): reference range 88 – 148; for Chloride (mean ± SD): reference range 112 – 123; for Sodium (mean ± SD): reference range 146 – 160
Experimental: The upper lip was everted and a Surgicutt incision device was used to create a small incision (approximately 1 mm in depth and 3.5 mm in length). Blood flow from the incision site was blotted using filter paper below the incision. The elapsed time from the triggering of the device until blood no longer appeared on the filter paper was recorded as the bleed time. […] Blood samples (3.0 mL) were collected from the jugular vein into tubes containing K3EDTA for evaluation of hematology parameters, sodium citrate for evaluation of coagulation parameters, and serum separators with no anticoagulant for the clinical chemistry samples. […] Coagulation variables were determined using a Stago Compact (Diagnostica Stago, Parsippany, NJ, US), clinical chemistry variables were determined using an Olympus AU2700 or AU640e (Olympus Diagnostics, Southall, UK), and urinalysis variables were determined using a […]-500 or Atlas (Siemens, Munich, Germany), Reichert VET 360 (Reichert Technologies, Buffalo, New York, USA), or light microscope. Post-treatment values were analyzed using […], with treatment group, sex, time, and their interactions as fixed model effects and the pre-treatment value measured closest to dosing as a covariate. Repeated measurements in the same animal were modeled using a compound symmetry or heterogeneous compound symmetry correlation structure (for food consumption: autoregressive first-order or heterogeneous autoregressive first-order); the model with the smallest Akaike's Information Criterion was selected for each outcome. If any of the interactions involving treatment was significant (p < 0.1 for the two-factor interactions or p < 0.05 for the three-factor interaction), it was inappropriate to evaluate the main or overall treatment effect independently of the interacting factor and, as such, treatment comparisons were conducted for each level of the interacting factor. If none of the interactions involving treatment were significant, overall treatment differences were assessed.

cats [2] = assay: Buccal mucosal bleeding time (BMBT); type: in vivo; settings: one 2X cat
Experimental: Buccal mucosal bleeding times (BMBT) were measured on all animals on Days − 5 and 36 following ECG examinations while the animals were sedated. The upper lip was everted and a Surgicutt incision device was used to create a small incision (approximately 1 mm in depth and 3.5 mm in length). Blood flow from the incision site was blotted using filter paper below the incision. The elapsed time from the triggering of the device until blood no longer appeared on the filter paper was recorded as the bleed time. Clinical pathology evaluations were conducted on all animals on Days − 13 and − 6 and prior to dosing on Days 13 and 37. Because reference values given by the laboratory were (slightly) different for males and females, they were combined (i.e. lower of the two lower bounds to higher of the two upper bounds) for the tables. […] Hematology variables were determined using an Advia 120 or Advia 2120 (Siemens, Munich, Germany), light microscope, or sediplast column (Polymedco, NY, US). Coagulation variables were determined using a Stago Compact (Diagnostica Stago, Parsippany, NJ, US), clinical chemistry variables were determined using an Olympus AU2700 or AU640e (Olympus Diagnostics, Southall, UK), and urinalysis variables were determined using a Clinitek-500 or Atlas (Siemens, Munich, Germany), Reichert VET 360 (Reichert Technologies, Buffalo, New York, USA), or light microscope.

anesthetized cats = tested on: anesthetized cats; parameters: method as in ref 24 = [24]; 24. Panteri A Deurinck M Seewald W Gerber S King JN Desevaux C Safety of intravenous Robenacoxib (Onsior) in cats J Vet Pharmacol Ther 2015 38 S1 149; settings: single dose SC 2 mg/kg or 2 or 4 mg/kg IV, 5 or 60 min post administration; cited from earlier work
cats [3] = tested on: cats; parameters: method as in ref 12 = [12]; 12. US Food and Drug Administration Freedom of Information Summary: Original New Animal Drug Application NADA 141–320 (Onsior Robenacoxib Tablets for Cats) 2011.; settings: six-month target animal safety study, oral robenacoxib at 1, 3 and 5X; cited from earlier work
[4] = tested on: healthy adult domestic short-hair cats; parameters: method as in ref 13 = [13]; 13. US Food and Drug Administration Freedom of Information Summary: Original New Animal Drug Application NADA 141–443 (Onsior Robenacoxib Injection Cats) 2015.; settings: 10 mg/kg robenacoxib solution for injection for three consecutive days; cited from earlier work
[5] = 1X (oral ≥2.4, SC 2.0 mg/kg/day)
[6] = 2X (oral ≥4.8, SC 4.0 mg/kg/day)
[7] = 3X (oral ≥7.2, SC 6.0 mg/kg/day)

CCc1ccc(Nc2c(F)c(F)cc(F)c2F)c(CC(=O)O)c1 [robenacoxib]
Total Bilirubin (mean ± SD) (cats [1]; [5]): 0.18 ± 0.04 mg/dL | GGT (mean ± SD) (cats [1]; [5]): 1.14 ± 0.43 U/L | AST (mean ± SD) (cats [1]; [5]): 22.2 ± 8.6 U/L | Creatine Kinase (mean ± SD) (cats [1]; [5]): 1479 ± 1901 U/L | Creatinine (mean ± SD) (cats [1]; [5]): 0.86 ± 0.13 mg/dL | Albumin/Globulin Ratio (mean ± SD) (cats [1]; [5]): 1.29 ± 0.14 | Globulin (mean ± SD) (cats [1]; [5]): 2.62 ± 0.23 g/dL | Albumin (mean ± SD) (cats [1]; [5]): 3.31 ± 0.21 g/dL | Potassium (mean ± SD) (cats [1]; [5]): 5.40 ± 0.24 mEq/L | Total Protein (mean ± SD) (cats [1]; [5]): 5.93 ± 0.28 g/dL | Phosphorus (mean ± SD) (cats [1]; [5]): 8.86 ± 0.76 mg/dL | Calcium (mean ± SD) (cats [1]; [5]): 10.01 ± 0.31 mg/dL | Triglyceride (mean ± SD) (cats [1]; [5]): 40.1 ± 27.2 mg/dL | Urea Nitrogen (mean ± SD) (cats [1]; [5]): 25.3 ± 2.7 mg/dL | ALT (mean ± SD) (cats [1]; [5]): 54.6 ± 9.2 U/L | Alkaline Phosphatase (mean ± SD) (cats [1]; [5]): 105.6 ± 40.6 U/L | Glucose (mean ± SD) (cats [1]; [5]): 85.1 ± 7.1 mg/dL | Cholesterol (mean ± SD) (cats [1]; [5]): 105.0 ± 18.1 mg/dL | Chloride (mean ± SD) (cats [1]; [5]): 116.63 ± 1.50 mEq/L | Sodium (mean ± SD) (cats [1]; [5]): 150.3 ± 1.3 mEq/L | Total Bilirubin (mean ± SD) (cats [1]; [6]): 0.19 ± 0.03 mg/dL | GGT (mean ± SD) (cats [1]; [6]): 1.33 ± 0.65 U/L | AST (mean ± SD) (cats [1]; [6]): 22.0 ± 4.1 U/L | Creatine Kinase (mean ± SD) (cats [1]; [6]): 975 ± 903 U/L | Creatinine (mean ± SD) (cats [1]; [6]): 0.85 ± 0.12 mg/dL | Albumin/Globulin Ratio (mean ± SD) (cats [1]; [6]): 1.36 ± 0.14 | Globulin (mean ± SD) (cats [1]; [6]): 2.57 ± 0.28 g/dL | Albumin (mean ± SD) (cats [1]; [6]): 3.46 ± 0.17 g/dL | Potassium (mean ± SD) (cats [1]; [6]): 5.33 ± 0.41 mEq/L | Total Protein (mean ± SD) (cats [1]; [6]): 6.03 ± 0.35 g/dL | Phosphorus (mean ± SD) (cats [1]; [6]): 8.18 ± 0.83 mg/dL | Calcium (mean ± SD) (cats [1]; [6]): 10.16 ± 0.26 mg/dL | Triglyceride (mean ± SD) (cats [1]; [6]): 32.4 ± 9.1 mg/dL | Urea Nitrogen (mean ± SD) (cats [1]; [6]): 24.8 ± 4.0 mg/dL | ALT (mean ± SD) (cats [1]; [6]): 56.6 ± 9.4 U/L | Alkaline Phosphatase (mean ± SD) (cats [1]; [6]): 94.5 ± 24.4 U/L | Glucose (mean ± SD) (cats [1]; [6]): 84.1 ± 9.0 mg/dL | Cholesterol (mean ± SD) (cats [1]; [6]): 103.9 ± 14.2 mg/dL | Chloride (mean ± SD) (cats [1]; [6]): 115.88 ± 1.71 mEq/L | Sodium (mean ± SD) (cats [1]; [6]): 150.5 ± 1.4 mEq/L | phosphorus relative to controls (pairwise comparison, pooled samples over all time points) (cats [1]; 2X group, not considered clinically relevant): decrease | Total Bilirubin (mean ± SD) (cats [1]; [7]): 0.19 ± 0.03 mg/dL | GGT (mean ± SD) (cats [1]; [7]): 0.94 ± 0.05 U/L | AST (mean ± SD) (cats [1]; [7]): 22.8 ± 6.8 U/L | Creatine Kinase (mean ± SD) (cats [1]; [7]): 1763 ± 2175 U/L | Creatinine (mean ± SD) (cats [1]; [7]): 0.79 ± 0.12 mg/dL | Albumin/Globulin Ratio (mean ± SD) (cats [1]; [7]): 1.32 ± 0.16 | Globulin (mean ± SD) (cats [1]; [7]): 2.66 ± 0.29 g/dL | Albumin (mean ± SD) (cats [1]; [7]): 3.44 ± 0.18 g/dL | Potassium (mean ± SD) (cats [1]; [7]): 5.50 ± 0.43 mEq/L | Total Protein (mean ± SD) (cats [1]; [7]): 6.10 ± 0.34 g/dL | Phosphorus (mean ± SD) (cats [1]; [7]): 8.66 ± 0.78 mg/dL | Calcium (mean ± SD) (cats [1]; [7]): 10.17 ± 0.26 mg/dL | Triglyceride (mean ± SD) (cats [1]; [7]): 37.7 ± 14.7 mg/dL | Urea Nitrogen (mean ± SD) (cats [1]; [7]): 25.2 ± 3.9 mg/dL | ALT (mean ± SD) (cats [1]; [7]): 55.3 ± 10.5 U/L | Alkaline Phosphatase (mean ± SD) (cats [1]; [7]): 90.0 ± 19.5 U/L | Glucose (mean ± SD) (cats [1]; [7]): 83.1 ± 6.2 mg/dL | Cholesterol (mean ± SD) (cats [1]; [7]): 112.6 ± 23.7 mg/dL | Chloride (mean ± SD) (cats [1]; [7]): 115.81 ± 1.97 mEq/L | Sodium (mean ± SD) (cats [1]; [7]): 150.6 ± 1.5 mEq/L | increase in BMBT value compared to pre-treatment value (cats [2]): approximately seven-fold | electrocardiographic changes (including QT interval) (anesthetized cats): no electrocardiographic changes | QT interval effect (cats [3]): dose-dependent QT prolongation | arrhythmias (cats [3]): no arrhythmias were documented | injection site observations [4]: transient, fluid-filled, painless enlargements at the injection sites that disappeared over a period of 72 hours | microscopic findings at injection sites [4]: minimal subcutaneous inflammatory cell infiltration
